From patent US9365522B2, “Pyrazole amide derivative” (AMGEN INC., priority 2015, dated 2016)

Biological target: T1, human RORγ-LBD (Homo sapiens, UniProt P51449)
T1 construct: made in house; host or cells: E. coli (BL-21)
T1 sequence (P51449 262-518): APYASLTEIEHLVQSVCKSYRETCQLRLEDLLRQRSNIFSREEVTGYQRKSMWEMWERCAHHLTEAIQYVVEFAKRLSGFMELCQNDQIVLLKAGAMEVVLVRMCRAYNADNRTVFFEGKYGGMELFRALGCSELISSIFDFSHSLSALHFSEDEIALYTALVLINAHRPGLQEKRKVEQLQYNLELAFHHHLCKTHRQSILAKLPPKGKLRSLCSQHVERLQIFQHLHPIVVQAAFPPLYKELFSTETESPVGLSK
Experiment: ROR gamma coactivator peptide recruitment Alphascreen assay (RORγ-LBD binding to GRIP1 coactivator peptide)
Format: biochemical
Settings: 5 nM human RORγ-LBD, 30 nM 7-β-hydroxycholesterol, 50 nM biotinylated GRIP1 coactivator peptide, overnight incubation at room temperature; read-out: result (pIC50, RORγ coactivator peptide recruitment Alphascreen assay) (converted)
Procedure, shortened: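 Alphascreen proximity read-out after overnight room-temperature incubation, yielding pIC50 from 1-in-2 compound series (2.5% DMSO final). Mixture: 50 nM biotin-GRIP1 peptide, 30 nM 7-β-hydroxycholesterol agonist, 5 nM recombinant 6×His:Flag human RORγ-LBD (aa 262-518), 50 mM HEPES pH 7.4.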

Row | IC50 [µM] | Compound
1 | 0.0676 | CC1(C)CC(N(CC(=O)c2c(Cl)cncc2Cl)C(=O)c2cnn([C@H]3CC[C@](C)(C(=O)O)CC3)c2C(F)(F)F)C1 [Example 587, trans-4-(4-((2-(3,5-dichloro-4-pyridinyl)-2-oxoethyl)(3,3-dimethylcyclobutyl)carbamoyl)-5-(trifluoromethyl)-1H-pyrazol-1-yl)-1-methylcyclohexanecarboxylic acid]
2 | 0.00331 | CC1(CN(CC(=O)c2c(Cl)cncc2Cl)C(=O)c2cnn([C@H]3CC[C@](C)(C(=O)O)CC3)c2C(F)(F)F)CCCCC1 [Example 588, trans-4-(4-((2-(3,5-dichloro-4-pyridinyl)-2-oxoethyl)((1-methylcyclohexyl)methyl)carbamoyl)-5-(trifluoromethyl)-1H-pyrazol-1-yl)-1-methylcyclohexanecarboxylic acid]
3 | 0.0427 | CC1(C)CC(CN(CC(=O)c2ccccc2Br)C(=O)c2cnn([C@H]3CC[C@](C)(C(=O)O)CC3)c2C(F)(F)F)C1 [Example 589, trans-4-(4-((2-(2-bromophenyl)-2-oxoethyl)((3,3-dimethylcyclobutyl)methyl)carbamoyl)-5-(trifluoromethyl)-1H-pyrazol-1-yl)-1-methylcyclohexanecarboxylic acid]
4 | 0.174 | COc1cc(Cl)c(C(=O)CN(CC2(F)CCCC2)C(=O)c2cnn([C@H]3CC[C@@H](C(=O)O)CC3)c2C(F)(F)F)c(Cl)c1 [Example 590, cis-4-(4-((2-(2,6-dichloro-4-methoxyphenyl)-2-oxoethyl)((1-fluorocyclopentyl)methyl)carbamoyl)-5-(trifluoromethyl)-1H-pyrazol-1-yl)cyclohexanecarboxylic acid]
5 | 0.00209 | CC1(CN(CCc2c(Cl)cncc2Cl)C(=O)c2cnn([C@H]3CC[C@](C)(C(=O)O)CC3)c2C(F)(F)F)CCCC1 [Example 591, trans-4-(4-((2-(3,5-dichloro-4-pyridinyl)ethyl)((1-methylcyclopentyl)methyl)carbamoyl)-5-(trifluoromethyl)-1H-pyrazol-1-yl)-1-methylcyclohexanecarboxylic acid]
6 | 0.00676 | C[C@]1(C(=O)O)CC[C@H](n2ncc(C(=O)N(CC(=O)c3c(Cl)cncc3Cl)CC3CCCC3)c2C(F)(F)F)CC1 [Example 592, trans-4-(4-((cyclopentylmethyl)(2-(3,5-dichloro-4-pyridinyl)-2-oxoethyl)carbamoyl)-5-(trifluoromethyl)-1H-pyrazol-1-yl)-1-methylcyclohexanecarboxylic acid]
7 | 0.0331 | C[C@]1(C(=O)O)CC[C@H](n2ncc(C(=O)N(CC(=O)c3c(Cl)cncc3Cl)CC3(F)CC3)c2C(F)(F)F)CC1 [Example 593, trans-4-(4-((2-(3,5-dichloro-4-pyridinyl)-2-oxoethyl)((1-fluorocyclopropyl)methyl)carbamoyl)-5-(trifluoromethyl)-1H-pyrazol-1-yl)-1-methylcyclohexanecarboxylic acid]
8 | 0.0741 | C[C@]1(C(=O)O)CC[C@H](n2ncc(C(=O)N(CC(=O)c3c(Cl)cncc3Cl)CC3CC(F)(F)C3)c2C(F)(F)F)CC1 [Example 594, trans-4-(4-((2-(3,5-dichloro-4-pyridinyl)-2-oxoethyl)((3,3-difluorocyclobutyl)methyl)carbamoyl)-5-(trifluoromethyl)-1H-pyrazol-1-yl)-1-methylcyclohexanecarboxylic acid]
9 | 0.00562 | CC1(C)CC(CN(CC(=O)c2c(F)cccc2Cl)C(=O)c2cnn([C@H]3CC[C@](C)(C(=O)O)CC3)c2C(F)(F)F)C1 [Example 595, trans-4-(4-((2-(2-chloro-6-fluorophenyl)-2-oxoethyl)((3,3-dimethylcyclobutyl)methyl)carbamoyl)-5-(trifluoromethyl)-1H-pyrazol-1-yl)-1-methylcyclohexanecarboxylic acid]
10 | 0.151 | CC1(C)CC(CN(CC(=O)c2c(F)cccc2Cl)C(=O)c2cnn([C@H]3CC[C@@H](C(=O)O)CC3)c2C(F)(F)F)C1 [Example 596, cis-4-(4-((2-(2-chloro-6-fluorophenyl)-2-oxoethyl)((3,3-dimethylcyclobutyl)methyl)carbamoyl)-5-(trifluoromethyl)-1H-pyrazol-1-yl)cyclohexanecarboxylic acid]
11 | 2.4 | CC1(C)CC(CN(CC(=O)c2c(F)cccc2F)C(=O)c2cnn([C@H]3CC[C@@H](C(=O)O)CC3)c2C(F)(F)F)C1 [Example 597, cis-4-(4-((2-(2,6-difluorophenyl)-2-oxoethyl)((3,3-dimethylcyclobutyl)methyl)carbamoyl)-5-(trifluoromethyl)-1H-pyrazol-1-yl)cyclohexanecarboxylic acid]
12 | 0.115 | CC1(C)CC(CN(CC(=O)c2c(F)cccc2F)C(=O)c2cnn([C@H]3CC[C@](C)(C(=O)O)CC3)c2C(F)(F)F)C1 [Example 598, trans-4-(4-((2-(2,6-difluorophenyl)-2-oxoethyl)((3,3-dimethylcyclobutyl)methyl)carbamoyl)-5-(trifluoromethyl)-1H-pyrazol-1-yl)-1-methylcyclohexanecarboxylic acid]
13 | 0.0138 | CC1(C)CC(N(CC(=O)c2c(Cl)cccc2Cl)C(=O)c2cnn([C@H]3CC[C@](C)(C(=O)O)CC3)c2C(F)(F)F)C1 [Example 599, trans-4-(4-((2-(2,6-dichlorophenyl)-2-oxoethyl)(3,3-dimethylcyclobutyl)carbamoyl)-5-(trifluoromethyl)-1H-pyrazol-1-yl)-1-methylcyclohexanecarboxylic acid]
14 | 0.794 | CC1(C)CC(N(CC(=O)c2c(Cl)cccc2Cl)C(=O)c2cnn([C@H]3CC[C@@H](C(=O)O)CC3)c2C(F)(F)F)C1 [Example 600, cis-4-(4-((2-(2,6-dichlorophenyl)-2-oxoethyl)(3,3-dimethylcyclobutyl)carbamoyl)-5-(trifluoromethyl)-1H-pyrazol-1-yl)cyclohexanecarboxylic acid]
15 | 0.0427 | CC1(C)C[C@H](CN(CC(=O)c2c(Cl)cccc2Cl)C(=O)c2cnn([C@H]3CC[C@](C)(C(=O)O)CC3)c2C(F)(F)F)O1 [Example 601, trans-4-(4-((2-(2,6-dichlorophenyl)-2-oxoethyl)(((2R)-4,4-dimethyl-2-oxetanyl)methyl)carbamoyl)-5-(trifluoromethyl)-1H-pyrazol-1-yl)-1-methylcyclohexanecarboxylic acid]
16 | 0.174 | COc1cccc(F)c1C(=O)CN(CC1CC(C)(C)C1)C(=O)c1cnn([C@H]2CC[C@](C)(C(=O)O)CC2)c1C(F)(F)F [Example 602, trans-4-(4-(((3,3-dimethylcyclobutyl)methyl)(2-(2-fluoro-6-methoxyphenyl)-2-oxoethyl)carbamoyl)-5-(trifluoromethyl)-1H-pyrazol-1-yl)-1-methylcyclohexanecarboxylic acid]
17 | 6.61 | CC1(C)CC(CN(CC(=O)c2ccccc2C#N)C(=O)c2cnn([C@H]3CC[C@](C)(C(=O)O)CC3)c2C(F)(F)F)C1 [Example 604, trans-4-(4-((2-(2-cyanophenyl)-2-oxoethyl)((3,3-dimethylcyclobutyl)methyl)carbamoyl)-5-(trifluoromethyl)-1H-pyrazol-1-yl)-1-methylcyclohexanecarboxylic acid]
18 | 0.151 | CC(C)(C)C[C@H](CO)N(CCc1c(Cl)cccc1Cl)C(=O)c1cnn([C@H]2CC[C@](C)(C(=O)O)CC2)c1C(F)(F)F [Example 605, trans-4-(4-((2-(2,6-dichlorophenyl)ethyl)((2R)-1-hydroxy-4,4-dimethyl-2-pentanyl)carbamoyl)-5-(trifluoromethyl)-1H-pyrazol-1-yl)-1-methylcyclohexanecarboxylic acid]
19 | 0.00447 | C[C@]1(C(=O)O)CC[C@H](n2ncc(C(=O)N(CCc3c(Cl)cncc3Cl)CC3(F)CCCC3)c2C(F)(F)F)CC1 [Example 606, trans-4-(4-((2-(3,5-dichloro-4-pyridinyl)ethyl)((1-fluorocyclopentyl)methyl)carbamoyl)-5-(trifluoromethyl)-1H-pyrazol-1-yl)-1-methylcyclohexanecarboxylic acid]
20 | 0.105 | COc1cccc(F)c1C(=O)CN(C(=O)c1cnn([C@H]2CC[C@](C)(C(=O)O)CC2)c1C(F)(F)F)C1CCC(C)(C)CC1 [Example 607, trans-4-(4-((4,4-dimethylcyclohexyl)(2-(2-fluoro-6-methoxyphenyl)-2-oxoethyl)carbamoyl)-5-(trifluoromethyl)-1H-pyrazol-1-yl)-1-methylcyclohexanecarboxylic acid]
21 | 0.123 | COc1cccc(F)c1C(=O)CN(CC1(F)CCCC1)C(=O)c1cnn([C@H]2CC[C@](C)(C(=O)O)CC2)c1C(F)(F)F [Example 608, trans-4-(4-(((1-fluorocyclopentyl)methyl)(2-(2-fluoro-6-methoxyphenyl)-2-oxoethyl)carbamoyl)-5-(trifluoromethyl)-1H-pyrazol-1-yl)-1-methylcyclohexanecarboxylic acid]
22 | 0.0123 | CC1(C)[C@@H]2C[C@H](N(CC(=O)c3c(Cl)cccc3Cl)C(=O)c3cnn([C@H]4CC[C@H](C(=O)O)CC4)c3C(F)(F)F)C[C@@H]21 [Example 610, cis-4-(4-((2-(2,6-dichlorophenyl)-2-oxoethyl)((1R,3r,5S)-6,6-dimethylbicyclo[3.1.0]hex-3-yl)carbamoyl)-5-(trifluoromethyl)-1H-pyrazol-1-yl)cyclohexanecarboxylic acid]
